Reference: publication PMC8330742, “New benzothieno[2,3-c]pyridines as non-steroidal CYP17 inhibitors: design, synthesis, anticancer screening, apoptosis induction, and in silico ADME profile studies” (Journal of Enzyme Inhibition and Medicinal Chemistry, 2021)
Where two headings read alike, the source gives them in different places.

Tests used:
[1] = tested on: RPMI-8226; test: NCI-60 SRB screen; type: cell-based; conditions: Homo sapiens, single dose 10^−5 M, read-out: Growth inhibition (%)
[2] = tested on: SF-539; test: NCI-60 SRB screen; type: cell-based, human; conditions: Homo sapiens, single dose 10^−5 M, read-out: Growth inhibition (%)
[3] = tested on: SNB-19; test: NCI-60 SRB screen; type: cell-based; conditions: Homo sapiens, single dose 10^−5 M, read-out: Growth inhibition (%)
[4] = tested on: SNB-75; test: NCI-60 SRB screen; type: cell-based, human; conditions: Homo sapiens, single dose 10^−5 M, read-out: Growth inhibition (%)
[5] = tested on: U251; test: NCI-60 SRB screen; type: cell-based, human; conditions: Homo sapiens, U-251, single dose 10^−5 M, read-out: Growth inhibition (%)
[6] = tested on: OVCAR-5; test: NCI-60 SRB screen; type: cell-based, human; conditions: Homo sapiens, single dose 10^−5 M, read-out: Growth inhibition (%)
[7] = tested on: SK-OV-3; test: NCI-60 SRB screen; type: cell-based, human; conditions: Homo sapiens, single dose 10^−5 M, read-out: Growth inhibition (%)
[8] = tested on: A498; test: NCI-60 SRB screen; type: cell-based, human; conditions: Homo sapiens, single dose 10^−5 M, read-out: Growth inhibition (%)
[9] = tested on: PC-3; test: NCI-60 SRB screen; type: cell-based, human; conditions: Homo sapiens, single dose 10^−5 M, read-out: Growth inhibition (%)
[10] = tested on: DU-145; test: NCI-60 SRB screen; type: cell-based, human; conditions: Homo sapiens, single dose 10^−5 M, read-out: Growth inhibition (%)
[11] = tested on: MCF7; test: NCI-60 SRB screen; type: cell-based, human; conditions: Homo sapiens, read-out: Growth inhibition (%)
[12] = tested on: MDA-MB-231/ATCC; test: NCI-60 SRB screen; type: cell-based, human; conditions: Homo sapiens, single dose 10^−5 M, read-out: Growth inhibition (%)
[13] = tested on: BT-549; test: NCI-60 SRB screen; type: cell-based, human; conditions: Homo sapiens, single dose 10^−5 M, read-out: Growth inhibition (%)
[14] = tested on: T-47D; test: NCI-60 SRB screen; type: cell-based, human; conditions: Homo sapiens, T47D, single dose 10^−5 M, read-out: Growth inhibition (%)
[15] = tested on: MDA-MB-468; test: NCI-60 SRB screen; type: cell-based, human; conditions: Homo sapiens, single dose 10^−5 M, read-out: Growth inhibition (%)
[16] = single dose 10^−5 M, MCF-7, Breast cancer

COc1ccc(C=C2Sc3c(F)cccc3C2=O)c(OC)c1 [Compound 2a, 2-(2,4-Dimethoxybenzylidene)-7-fluoro[1]benzothiophen-3(2H)-one]
inhibition at 10 µM ([1]; RPMI-8226): -8.46%
inhibition at 10 µM ([2]; SF-539): -0.64%
inhibition at 10 µM ([3]; SNB-19): -2.1%
inhibition at 10 µM ([4]; SNB-75): 12.6%
inhibition at 10 µM ([5]; U251): -7.91%
inhibition at 10 µM ([6]; OVCAR-5): -9.42%
inhibition at 10 µM ([7]; SK-OV-3): 6.36%
inhibition at 10 µM ([8]; A498): -4.03%
melting point: 195 to 197 °C

O=[N+]([O-])c1cccc(C2NC3=C(Nc4ccccc4N3)c3c2sc2c(F)cccc32)c1 (stereo not drawn) [Compound 9, 9-Fluoro-7-(3-nitrophenyl)-5,6,7,13-tetrahydro[1]benzothieno[3′,2′:4,5]-pyrido[2,3-b]quinoxaline]
inhibition at 10 µM ([1]; RPMI-8226, Leukaemia): 12.1%
inhibition at 10 µM ([2]; SF-539, CNS cancer): 3.93%
inhibition at 10 µM ([3]; SNB-19, CNS cancer): -0.03%
inhibition at 10 µM ([4]; SNB-75, CNS cancer): 10.2%
inhibition at 10 µM ([5]; U251, CNS cancer): -3.59%
inhibition at 10 µM ([6]; OVCAR-5, Ovarian cancer): 3.15%
inhibition at 10 µM ([7]; SK-OV-3, Ovarian cancer): -1.7%
inhibition at 10 µM ([8]; A498, Renal cancer): -0.12%
inhibition at 10 µM ([9]; PC-3, Prostate cancer): 7.47%
inhibition at 10 µM ([10]; DU-145, Prostate cancer): -11.4%
inhibition at 10 µM [11, 16]: 1.91%
inhibition at 10 µM ([12]; MDA-MB 231/ATCC, Breast cancer): 17.8%
inhibition at 10 µM ([13]; BT-549, Breast cancer): 5.02%
inhibition at 10 µM ([14]; Breast cancer): -5.91%
inhibition at 10 µM ([15]; MDA-MB-468, Breast cancer): -10.6%
melting point: 160 to 162 °C

O=[N+]([O-])c1cccc(C2NC(Cl)=C(Cl)c3c2sc2c(F)cccc32)c1 (stereo not drawn) [Compound 7a, 3,4-Dichloro-8-fluoro-1-(3-nitrophenyl)-1,2-dihydro[1]benzothieno[2,3-c] pyridine]
inhibition at 10 µM ([1]; RPMI-8226): 11.5%
inhibition at 10 µM ([6]; OVCAR-5): 3.21%
inhibition at 10 µM ([7]; SK-OV-3): 5.95%
inhibition at 10 µM ([8]; A498): 3.36%
inhibition at 10 µM ([9]; PC-3): 3.11%
inhibition at 10 µM ([10]; DU-145): -4.75%
inhibition at 10 µM ([11]; MCF-7, single dose 10^−5 M): 5.05%
inhibition at 10 µM ([12]; MDA-MB-231, MDAMB231/ATCC): 8.09%
inhibition at 10 µM ([13]; BT-549): 0.77%
inhibition at 10 µM [14]: 17.7%
inhibition at 10 µM ([15]; MDA-MB-468): -4.71%
melting point: 120 to 122 °C

COc1ccc(C2NC(=O)C(Cl)c3c2sc2c(F)cccc32)cc1 (stereo not drawn) [Compound 4b, 4-Chloro-8-fluoro-1-(4-methoxyphenyl)-1,2-dihydro[1]benzothieno[2,3-c] pyridine-3(4H)-one]
inhibition at 10 µM ([1]; RPMI-8226): 7.32%
inhibition at 10 µM ([2]; SF-539): 15.8%
inhibition at 10 µM ([3]; SNB-19): 7.47%
inhibition at 10 µM ([4]; SNB-75): 22.8%
inhibition at 10 µM ([5]; U251): 21.1%
inhibition at 10 µM ([6]; OVCAR-5): -12.9%
inhibition at 10 µM ([7]; SK-OV-3): -2.04%
inhibition at 10 µM ([8]; A498): 11.1%
melting point: 154 to 156 °C

CCN1CCN(C2C(=O)NC(c3cccc([N+](=O)[O-])c3)c3sc4c(F)cccc4c32)CC1 (stereo not drawn) [Compound 6a, 4-(4-Ethylpiperazin-1-yl)-8-fluoro-1-(3-nitrophenyl)-1,2-dihydro[1]benzo thieno[2,3-c]pyridin-3(4H)-one]
inhibition at 10 µM ([1]; RPMI-8226): 4.93%
inhibition at 10 µM ([6]; OVCAR-5): -3.55%
inhibition at 10 µM ([7]; SK-OV-3): -1.47%
inhibition at 10 µM ([8]; A498): 0.35%
inhibition at 10 µM ([9]; PC-3): 9.37%
inhibition at 10 µM ([10]; DU-145): -10.8%
inhibition at 10 µM ([11]; MCF-7, single dose 10^−5 M): 0.6%
inhibition at 10 µM ([12]; MDA-MB-231, MDAMB231/ATCC): -0.79%
inhibition at 10 µM ([13]; BT-549): -0.58%
inhibition at 10 µM [14]: -1.25%
inhibition at 10 µM ([15]; MDA-MB-468): -7.69%
melting point: 240 to 241 °C

O=C1C(=Cc2ccccc2[N+](=O)[O-])Sc2c(F)cccc21 [Compound 2c, 7-Fluoro-2-(2-nitrobenzylidene)[1]benzothiophen-3(2H)-one]
inhibition at 10 µM ([1]; RPMI-8226): 30.6%
inhibition at 10 µM ([2]; SF-539): 3.65%
inhibition at 10 µM ([3]; SNB-19): 14.2%
inhibition at 10 µM ([4]; SNB-75): -1.55%
inhibition at 10 µM ([5]; U251): 32.5%
inhibition at 10 µM ([7]; SK-OV-3): 2.42%
inhibition at 10 µM ([8]; A498): 55.1%
melting point: 170 to 172 °C

O=C1NC(c2cccc([N+](=O)[O-])c2)c2sc3c(F)cccc3c2C1N1CCOCC1 (stereo not drawn) [Compound 6b, 8-Fluoro-4-morpholino-1(3-nitrophenyl)-1,2-dihydro[1]benzothieno[2,3-c]pyridin-3(4H)-one]
inhibition at 10 µM ([1]; RPMI-8226): 14.4%
inhibition at 10 µM ([6]; OVCAR-5): -6.35%
inhibition at 10 µM ([7]; SK-OV-3): 0.4%
inhibition at 10 µM ([8]; A498): 13.5%
inhibition at 10 µM ([9]; PC-3): 10.4%
inhibition at 10 µM ([10]; DU-145): -9.4%
inhibition at 10 µM ([11]; MCF-7, single dose 10^−5 M): 10.3%
inhibition at 10 µM ([12]; MDA-MB-231, MDAMB231/ATCC): 7.92%
inhibition at 10 µM ([13]; BT-549): 1.66%
inhibition at 10 µM [14]: 15.4%
inhibition at 10 µM ([15]; MDA-MB-468): -3.26%
melting point: 250 to 251 °C

N#CC1C(=O)NC(c2cccc([N+](=O)[O-])c2)c2sc3c(F)cccc3c21 (stereo not drawn) [Compound 5d, 4-Cyano-8-fluoro-1-(3-nitrophenyl)-1,2-dihydro[1]benzothieno[2,3-c] pyridin-3(4H)-one]
inhibition at 10 µM ([1]; RPMI-8226): 14%
inhibition at 10 µM ([6]; OVCAR-5): 1.54%
inhibition at 10 µM ([7]; SK-OV-3): -0.9%
inhibition at 10 µM ([8]; A498): 17.3%
inhibition at 10 µM ([9]; PC-3): 13.2%
inhibition at 10 µM ([10]; DU-145): -10%
inhibition at 10 µM ([11]; MCF-7, single dose 10^−5 M): 15.1%
inhibition at 10 µM ([12]; MDA-MB-231, MDAMB231/ATCC): 19.2%
inhibition at 10 µM ([13]; BT-549): 8.35%
inhibition at 10 µM [14]: 20.1%
inhibition at 10 µM ([15]; MDA-MB-468): -6.48%
melting point: 180 to 182 °C

O=[N+]([O-])c1cccc(C2NC(N3CCCCC3)=C(Cl)c3c2sc2c(F)cccc32)c1 (stereo not drawn) [Compound 8c, 4-Chloro-3-(piperidin-1-yl)-8-fluoro-1-(3-nitrophenyl)-1,2-dihydro [1]benzothieno[2,3-c]pyridine]
inhibition at 10 µM ([1]; RPMI-8226, Leukaemia): 8.74%
inhibition at 10 µM ([2]; SF-539, CNS cancer): -6.63%
inhibition at 10 µM ([3]; SNB-19, CNS cancer): -3.36%
inhibition at 10 µM ([4]; SNB-75, CNS cancer): 22.4%
inhibition at 10 µM ([5]; U251, CNS cancer): -7.81%
inhibition at 10 µM ([6]; OVCAR-5, Ovarian cancer): -1.61%
inhibition at 10 µM ([7]; SK-OV-3, Ovarian cancer): 9.9%
inhibition at 10 µM ([9]; PC-3, Prostate cancer): 11.9%
inhibition at 10 µM ([10]; DU-145, Prostate cancer): -12.5%
inhibition at 10 µM [11, 16]: 23.3%
inhibition at 10 µM ([12]; MDA-MB 231/ATCC, Breast cancer): 13.9%
inhibition at 10 µM ([13]; BT-549, Breast cancer): -10.5%
inhibition at 10 µM ([14]; Breast cancer): 17.5%
inhibition at 10 µM ([15]; MDA-MB-468, Breast cancer): -13.9%
melting point: 241 to 243 °C

O=C1NC(c2cccc([N+](=O)[O-])c2)c2sc3c(F)cccc3c2C1Cl (stereo not drawn) [Compound 4d, 4-Chloro-8-fluoro-1-(3-nitrophenyl)-1,2-dihydro[1]benzothieno[2,3-c] pyridine-3(4H)-one]
inhibition at 10 µM ([1]; RPMI-8226): 9.61%
inhibition at 10 µM ([6]; OVCAR-5): -3.92%
inhibition at 10 µM ([7]; SK-OV-3): -10.2%
inhibition at 10 µM ([8]; A498): -0.03%
inhibition at 10 µM ([9]; PC-3): 3.8%
inhibition at 10 µM ([10]; DU-145): -8.57%
inhibition at 10 µM ([11]; MCF-7, single dose 10^−5 M): 8.44%
inhibition at 10 µM ([12]; MDA-MB-231, MDAMB231/ATCC): 5.22%
inhibition at 10 µM ([13]; BT-549): 3.62%
inhibition at 10 µM [14]: 8.7%
inhibition at 10 µM ([15]; MDA-MB-468): -8.27%
melting point: 160 to 162 °C

O=C1NC(c2ccccc2[N+](=O)[O-])c2sc3c(F)cccc3c2C1Cl (stereo not drawn) [Compound 4c, 4-Chloro-8-fluoro-1-(2-nitrophenyl)-1,2-dihydro[1]benzothieno[2,3-c] pyridine-3(4H)-one]
inhibition at 10 µM ([1]; RPMI-8226): 5.9%
inhibition at 10 µM ([2]; SF-539): 3.36%
inhibition at 10 µM ([3]; SNB-19): -2.16%
inhibition at 10 µM ([4]; SNB-75): 11.7%
inhibition at 10 µM ([5]; U251): 8.82%
inhibition at 10 µM ([6]; OVCAR-5): -2.88%
inhibition at 10 µM ([7]; SK-OV-3): -9.85%
inhibition at 10 µM ([8]; A498): -6.23%
melting point: 110 to 112 °C

COc1ccc(C2NC(=O)C(Cl)c3c2sc2c(F)cccc32)c(OC)c1 (stereo not drawn) [Compound 4a, 4-Chloro-1-(2,4-Dimethoxyphenyl)-8-fluoro-1,2-dihydro[1]benzothieno [2,3-c]pyridine-3(4H)-one]
inhibition at 10 µM ([1]; RPMI-8226): 11.7%
inhibition at 10 µM ([2]; SF-539): 3.36%
inhibition at 10 µM ([3]; SNB-19): 0.33%
inhibition at 10 µM ([4]; SNB-75): 22.3%
inhibition at 10 µM ([5]; U251): 0.4%
inhibition at 10 µM ([6]; OVCAR-5): -3.64%
inhibition at 10 µM ([7]; SK-OV-3): 0.53%
inhibition at 10 µM ([8]; A498): 14.9%
melting point: 120 to 122 °C
